In patent publication US6964966B2, “Generation triple-targeting, chiral, broad-spectrum antimicrobial 7-substituted piperidino-quinolone carboxylic acid derivatives, their preparation, compositions and use as medicaments” (Wockhardt Limited, priority 2001, dated 2005):
≈ marks a conversion by molar mass, not a printed value. Where two headings read alike, the source gives them in different places.

Columns and labels:
Format in all cases: cell-based
[1] = test system: Fluoroquinolone Sensitive Strains; assay: In-vitro antimicrobial test, MIC by two-fold serial agar dilution (NCCLS): fluoroquinolone sensitive strains (Table 17)
Description: (§1) The test method was in accordance with the standard NCCLS protocol (Methods for Dilution Antimicrobial Susceptibility Tests for Bacteria that grow Aerobicially, Approved Standards, M7-A5, Fifth Edition, January 2000).
(§2) The antibacterial activities (minimum inhibitory concentration: MIC, mcg/ml) were determined by using the two-fold serial agar dilution method recommended by NCCLS. The media used for preculture and main culture were Tryptic Soya broth (Difco) and Mueller Hinton medium (Difco), respectively. The Mueller Hinton agar was supplemented with 5% sheep blood for streptococci. Overnight cultures were diluted with buffered saline (pH 7.2) to the final cell density of 5×10^6-10^7 CFU/ml, and each bacterial suspension was applied with a replicator (Denley's multipoint inoculator, UK) onto a series of Mueller-Hinton agar plates containing antibacterial agents at various concentrations. Final inoculum was approximately 10^4 CFU/spot. The plates were incubated for 18 hrs at 37° C. The MIC was defined as the lowest concentration of an antibacterial agent that inhibits the development of visible microbial growth on agar.

[2] = test system: J 744 (mouse macrophage); assay: Cytotoxicity test (Alamar blue), J 744 cells (Table 23); settings: minimum drug concentration inhibiting Alamar blue color change; 3 hrs drug exposure, then 96 hrs incubation; J 744 mouse macrophage cells
Description: (§3) Compounds were evaluated for their cytotoxic potential against two […] viz. […] Freshly grown cells were distributed in microtiter plates at a cell density of 10^5-10^6 cells/well and allowed to adhere and form monolayer by incubating the microtiter plate at 37° C. for 24 hrs. […] Following 3 hrs. of drug exposure, cells were washed with D-MEM and incubated further for 96 hrs. Cytotoxic effects of drugs were monitored through daily microscopic observation and by ascertaining the metabolic status through redox indicator Alamar blue. Healthy actively metabolising cells bring about colour change of Alamar blue from blue to pink within an overnight incubation. Cytotoxic drugs inhibit this reaction resulting into blue coloured wells. Minimum drug concentration inhibiting Alamar blue color change i.e. resulting into blue coloured wells for a given drug is considered cytotoxic concentration.

[3] = test system: V79 (Chinese Hamster Lung); assay: Cytotoxicity test (Alamar blue), V79 cells (Table 23); settings: minimum drug concentration inhibiting Alamar blue color change, 3 hrs drug exposure, then 96 hrs incubation
Description: as §3

[4] = test system: Fluoroquinolone-Resistant Strains; assay: In-vitro antimicrobial test, MIC by agar dilution (NCCLS): fluoroquinolone-resistant strains (Table 18)
Description: as §1, §2

[5] = Escherichia coli, ATCC25922, E. coli ATCC 25922, read-out: MIC, E. coli ATCC 25922
[6] = Staphylococcus aureus, ATCC 25923 / MSSA, MSSA ATCC 25923, read-out: MIC, MSSA ATCC 25923
[7] = Streptococcus pneumoniae, ATCC49619, S. pneumoniae ATCC 49619, read-out: MIC, S. pneumoniae ATCC 49619

## CCc1c(N2CCC(O)C(C)C2)c(F)cc2c(=O)c(C(=O)O)cn(C3CC3)c12 (mixture of isomers) [Compound 100, cis/trans-1-Cyclopropyl-6-fluoro-8-ethyl-7-(4-hydroxy-3-methyl-1-piperidinyl)-1,4-dihydro-4-oxo-quinoline-3-carboxylic acid]
[1]
  MIC, E. coli ATCC 25922: 0.8 µg/mL
  MIC, MSSA ATCC 25923: 0.1 µg/mL
  MIC, S. pneumoniae ATCC 49619: 0.8 µg/mL

## Cc1c(N2CCC(N)C(C)(C)C2)c(F)cc2c(=O)c(C(=O)O)cn(C3CC3)c12 (racemic) [Compound 91, (±)1-Cyclopropyl-6-fluoro-1,4-dihydro-8-methyl-7-(4-amino-3,3-dimethyl-1-piperidinyl)-4-oxo-quinoline-3-carboxylic acid]
[2]
  Cytotoxic concentration, J 744 Macrophage: 1000 µg/mL
[3]
  Cytotoxic concentration, V 79 CHL: 750 µg/mL

## Cc1c(N2CCC(N)C(C)(C)C2)c(F)cc2c(=O)c(C(=O)O)cn(C3CC3)c12 (racemic) [Compound 92, (±)-1-Cyclopropyl-6-fluoro-1,4-dihydro-8-methyl-7-(4-amino-3,3-dimethyl-1-piperidinyl)-4-oxo-quinoline-3-carboxylic acid]
[2]
  Cytotoxic concentration, J 744 Macrophage: >1000 µg/mL
[3]
  Cytotoxic concentration, V 79 CHL: >1000 µg/mL
[1]
  MIC, E. coli ATCC 25922: 0.05 µg/mL (≈ 0.129 µM)
  MIC, MSSA ATCC 25923: 0.025 µg/mL (≈ 0.0645 µM)

## CC[C@@H]1CN(c2c(F)cc3c(=O)c(C(=O)O)cn(C4CC4)c3c2C)CC[C@H]1O (relative stereo) [Compound 88, cis/trans-1-Cyclopropyl-6-fluoro-8-methyl-7-(4-hydroxy-3-ethyl-1-piperidinyl)-1,4-dihydro-4-oxo-quinoline-3-carboxylic acid]
[1]
  MIC, E. coli ATCC 25922: 0.4 µg/mL (≈ 1.03 µM)
  MIC, MSSA ATCC 25923: 0.012 µg/mL (≈ 0.0309 µM)
  MIC, S. pneumoniae ATCC 49619: 0.1 µg/mL (≈ 0.257 µM)
[1]; E. faecalis ATCC 29212
  MIC, E. faecalis ATCC 29212: 0.2 µg/mL (≈ 0.515 µM)
[1]; P. aeruginosa 27853
  MIC, P. aeruginosa 27853: 12.5 µg/mL (≈ 32.2 µM)
[1]; S. sanguis ATCC 10556 (Viridans Streptococci)
  MIC, S. sanguis ATCC 10556: 0.2 µg/mL (≈ 0.515 µM)
[4]; Cipro^R S. mitis 938
  MIC, Cipro^R S. mitis 938: 3.12 µg/mL (≈ 8.03 µM)
[4]; Cipro^R S. sanguis 941
  MIC, Cipro^R S. sanguis 941: 3.12 µg/mL (≈ 8.03 µM)
[4]; FQ^R S. pneumoniae 718
  MIC, FQ^R S. pneumoniae 718: 3.12 µg/mL (≈ 8.03 µM)
[4]; MRSA 032
  MIC, MRSA 032: 0.8 µg/mL (≈ 2.06 µM)

## Cc1c(N2CC[C@@H](N)[C@H](C)C2)c(F)cc2c(=O)c(C(=O)O)cn(C3CC3)c12 (relative stereo) [Compound 89, trans-1-Cyclopropyl-6-fluoro-1,4-dihydro-8-methyl-7-(4-amino-3-methyl-1-piperidinyl)-4-oxo-quinoline-3-carboxylic acid]
[2]
  Cytotoxic concentration, J 744 Macrophage: 1000 µg/mL
[3]
  Cytotoxic concentration, V 79 CHL: 250 µg/mL

## Cc1c(N2CC[C@H](N)[C@H](C)C2)c(F)cc2c(=O)c(C(=O)O)cn(C3CC3)c12 (relative stereo) [Compound 90, cis-1-Cyclopropyl-6-fluoro-1,4-dihydro-8-methyl-7-(4-amino-3-methyl-1-piperidinyl)-4-oxo-quinoline-3-carboxylic acid]
[2]
  Cytotoxic concentration, J 744 Macrophage: 1000 µg/mL
[3]
  Cytotoxic concentration, V 79 CHL: 125 µg/mL

## Cc1c(N2CC[C@H](N)[C@H](C)C2)c(F)c(N)c2c(=O)c(C(=O)O)cn(C3CC3)c12 (relative stereo) [Compound 111, cis-1-5-Amino-1-cyclopropyl-6-fluoro-1,4-dihydro-8-methyl-7-(4-amino-3-methyl-1-piperidinyl)-4-oxo-quinoline-3-carboxylic acid]
[1]
  MIC, E. coli ATCC 25922: 1.56 µg/mL (≈ 4.02 µM)
  MIC, MSSA ATCC 25923: 0.8 µg/mL (≈ 2.06 µM)

## COc1c(N2CCC(N)C(C)(C)C2)c(F)cc2c(=O)c(C(=O)O)cn(-c3ccc(F)cc3F)c12 (centres unmarked) [Compound 17, 1-(2,4-Difluorophenyl)-6-fluoro-1,4-dihydro-8-methoxy-7-(4-amino-3,3-dimethyl-1-piperidinyl)-4-oxo-quinoline-3-carboxylic acid]
[1]; [5]
  MIC: 0.4 µg/mL (≈ 0.841 µM)
[1]; [6]
  MIC: 0.4 µg/mL (≈ 0.841 µM)
[1]; [7]
  MIC: 1.56 µg/mL (≈ 3.28 µM)

## CCNC1C(C)CN(c2c(F)cc3c(=O)c(C(=O)O)cn(C4CC4)c3c2OC)CC1C (centres unmarked) [Compound 39, 1-Cyclopropyl-6-fluoro-1,4-dihydro-8-methoxy-7-(4-ethylamino-3,5-dimethyl-1-piperidinyl)-4-oxo-quinoline-3-carboxylic acid]
[1]; [5]
  MIC: 6.25 µg/mL (≈ 14.5 µM)
[1]; [6]
  MIC: 1.56 µg/mL (≈ 3.62 µM)
[1]; [7]
  MIC: > 6.25 µg/mL

## COc1c(N2CCC(NC(C)=O)C(C)(C)C2)c(F)c(N)c2c(=O)c(C(=O)O)cn(C3CC3)c12 (centres unmarked) [Compound 61, 5-Amino-1-cyclopropyl-6-fluoro-1,4-dihydro-8-methoxy-7-(4-acetylamino-3,3-dimethyl-1-piperidinyl)-4-oxo-quinoline-3-carboxylic acid]
[1]; [5]
  MIC: 0.4 µg/mL (≈ 0.869 µM)
[1]; [6]
  MIC: 0.05 µg/mL (≈ 0.109 µM)
[1]; [7]
  MIC: 0.2 µg/mL (≈ 0.434 µM)

## CCNC1CCN(c2c(F)c(N)c3c(=O)c(C(=O)O)cn(C4CC4)c3c2OC)CC1(C)C (centres unmarked) [Compound 66, 5-Amino-1-cyclopropyl-6-fluoro-1,4-dihydro-8-methoxy-7-(4-ethylamino-3,3-dimethyl-1-piperidinyl)-4-oxo-quinoline-3-carboxylic acid]
[1]; [5]
  MIC: 0.2 µg/mL (≈ 0.448 µM)
[1]; [6]
  MIC: 0.05 µg/mL (≈ 0.112 µM)
[1]; [7]
  MIC: 0.2 µg/mL (≈ 0.448 µM)

## Cc1c(N2CCC(O)CC2)c(F)cc2c(=O)c(C(=O)O)cn(C3CC3)c12 [Compound 83, 1-Cyclopropyl-6-fluoro-8-methyl-7-(4-hydroxy-1-piperidinyl)-1,4-dihydro-4-oxo-quinoline-3-carboxylic acid]
[1]; [5]
  MIC: 0.05 µg/mL (≈ 0.139 µM)
[1]; [6]
  MIC: 0.1 µg/mL (≈ 0.277 µM)

## Cc1c(N2CCC(N)C(C)(C)C2)c(F)cc2c(=O)c(C(=O)O)cn(C3CC3)c12 (centres unmarked) [Compound 94, 1-Cyclopropyl-6-fluoro-1,4-dihydro 8-methyl-7-(4-amino-3,3-dimethyl-1-piperidinyl)-4-oxo-quinoline-3-carboxylic acid]
[1]; [7]
  MIC: 0.05 µg/mL (≈ 0.129 µM)

## COc1c(N2CCC(O)C(C)C2)c(F)c(N)c2c(=O)c(C(=O)O)cn(C3CC3)c12 (centres unmarked) [Compound 116, 5-Amino-1-cyclopropyl-6-fluoro-1,4-dihydro-8-methoxy-7-(4-hydroxy-3-methyl-1-piperidinyl)-4-oxo-quinoline-3-carboxylic acid]
[1]; [5]
  MIC: 0.4 µg/mL (≈ 0.987 µM)
[1]; [6]
  MIC: 0.025 µg/mL (≈ 0.0617 µM)
[1]; [7]
  MIC: 0.2 µg/mL (≈ 0.493 µM)

## COc1c(N2CCC(O)C(C)(C)C2)c(F)c(N)c2c(=O)c(C(=O)O)cn(C3CC3)c12 (centres unmarked) [Compound 125, 5-Amino-1-cyclopropyl-6-fluoro-1,4-dihydro-8-methoxy-7-(4-hydroxy-3,3-dimethyl-1-piperidinyl)-4-oxo-quinoline-3-carboxylic acid]
[1]; [5]
  MIC: 1.56 µg/mL (≈ 3.72 µM)
[1]; [6]
  MIC: 0.025 µg/mL (≈ 0.0596 µM)
[1]; [7]
  MIC: 0.4 µg/mL (≈ 0.954 µM)

## COc1c(N2CC(C)C(O)C(C)C2)c(F)c(N)c2c(=O)c(C(=O)O)cn(C3CC3)c12 (centres unmarked) [Compound 127, 5-Amino-1-cyclopropyl-6-fluoro-1,4-dihydro-8-methoxy-7-(4-hydroxy-3,5-dimethyl-1-piperidinyl)-4-oxo-quinoline-3-carboxylic acid]
[1]; [5]
  MIC: 0.4 µg/mL (≈ 0.954 µM)
[1]; [6]
  MIC: < 0.006 µg/mL
[1]; [7]
  MIC: 0.1 µg/mL (≈ 0.238 µM)

## N[C@@H]1[C@H]2CN(c3nc4c(cc3F)c(=O)c(C(=O)O)cn4-c3ccc(F)cc3F)C[C@@H]12 [Trovafloxacin, reference compound]
[2]
  Cytotoxic concentration, J 744 Macrophage: 500 µg/mL
